Columns and labels:
[1] = molecular target: Cyclin-dependent kinase 5 activator 1 (Homo sapiens, UniProt Q15078+Q00535); assay: Inhibition of GST-fused CDK5/p25 expressed in Escherichia coli assessed as [gamma-33P]ATP incorporation after 10 mins by scintillation counting
[2] = molecular target: Dual specificity tyrosine-phosphorylation-regulated kinase 1A (Rattus norvegicus, UniProt Q63470); assay: Inhibition of GST-fused rat recombinant DYRK1A expressed in Escherichia coli assessed as [gamma-33P]ATP incorporation after 10 mins by scintillation counting

Chain of Cyclin-dependent kinase 5 activator 1 (Q15078 whole entry, the tested form may be a part): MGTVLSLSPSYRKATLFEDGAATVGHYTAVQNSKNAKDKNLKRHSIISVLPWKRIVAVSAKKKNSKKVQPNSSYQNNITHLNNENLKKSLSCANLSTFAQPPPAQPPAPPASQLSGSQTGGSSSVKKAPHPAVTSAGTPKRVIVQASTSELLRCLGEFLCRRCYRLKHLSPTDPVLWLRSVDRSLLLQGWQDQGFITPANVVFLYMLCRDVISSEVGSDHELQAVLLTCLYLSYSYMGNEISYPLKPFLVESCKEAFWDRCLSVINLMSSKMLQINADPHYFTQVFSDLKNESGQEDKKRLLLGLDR
Chain of Cyclin-dependent kinase 5 activator 1 (Q00535 whole entry, the tested form may be a part): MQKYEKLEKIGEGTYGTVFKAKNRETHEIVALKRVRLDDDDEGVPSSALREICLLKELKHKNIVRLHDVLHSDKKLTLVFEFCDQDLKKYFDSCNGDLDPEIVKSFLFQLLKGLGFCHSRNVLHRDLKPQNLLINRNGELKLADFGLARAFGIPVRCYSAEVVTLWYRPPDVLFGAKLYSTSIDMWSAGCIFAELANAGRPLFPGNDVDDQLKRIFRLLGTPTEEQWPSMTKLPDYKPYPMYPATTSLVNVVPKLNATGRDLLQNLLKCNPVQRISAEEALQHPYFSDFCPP

Row | IC50 [1] [µM] | IC50 [2] [µM] | Structure (SMILES)
1 | > 10 |  | O=C1C(C2C(=O)Nc3cc([N+](=O)[O-])ccc32)=Nc2ccc(Br)cc21 (stereo unspecified)
2 | > 10 |  | O=C1C(C2C(=O)Nc3cc([N+](=O)[O-])ccc32)=Nc2ccccc21 (stereo unspecified) [(2''Z)-6-Nitroindirubin]
3 | > 10 | > 10 | O=C1C(C2C(=O)Nc3c(Br)cc([N+](=O)[O-])cc32)=Nc2ccc(Br)cc21 (stereo unspecified) [(2'Z)-5'-7-Dibromo-5-nitroindirubin]
4 | > 10 | > 10 | O=C1N=c2c(Br)cc([N+](=O)[O-])cc2=C1c1[nH]c2ccccc2c1O [(2'Z)-7-Bromo-5-nitroindirubin]
5 |  | > 10 | Nc1ccc2c(c1)C(c1[nH]c3ccc(Br)cc3c1N=O)C(=O)N2 (stereo unspecified) [(Z)-5'-Amino-5-bromo-1H,1'H-[2,3']biindolylidene-3,2'-dione 3-oxime]
6 |  | > 10 | O=C1N=c2ccc([N+](=O)[O-])cc2=C1c1[nH]c2ccccc2c1O [(Z)-5'-Nitro-1H,1'H-[2,3']biindolylidene-3,2'-dione]
7 | > 10 | > 10 | O=Nc1c(C2C(=O)Nc3c(Br)cc([N+](=O)[O-])cc32)[nH]c2ccc(Br)cc12 (stereo unspecified) [(Z)-5,7'-Dibromo-5'-nitro-1H,1'H-[2,3']biindolylidene-3,2'-dione 3-oxime]
8 |  | > 10 | O=Nc1c(C2C(=O)Nc3ccc([N+](=O)[O-])cc32)[nH]c2ccc(Br)cc12 (stereo unspecified) [(Z)-5-Bromo-5'-nitro-1H,1'H-[2,3']biindolylidene-3,2'-dione 3-oxime]
9 | > 10 | > 10 | O=C1C(C2C(=O)Nc3ccc([N+](=O)[O-])cc32)=Nc2ccc(Br)cc21 (stereo unspecified) [(Z)-5-Bromo-5'-nitro-1H,1'H-[2,3']biindolylidene-3,2'-dione]
10 | > 10 | > 10 | O=Nc1c(C2C(=O)Nc3c(Br)cc([N+](=O)[O-])cc32)[nH]c2ccccc12 (stereo unspecified) [(Z)-7'-Bromo-5'-nitro-1H,1'H-[2,3']biindolylidene-3,2'-dione 3-oxime]
11 |  | > 10 | CC(=O)Nc1ccc2c(c1)C(c1[nH]c3ccc(Br)cc3c1N=O)C(=O)N2 (stereo unspecified) [N-{(Z)-5-Bromo-3-[(E)-hydroxyimino]-2'-oxo-1,3,1',2'-tetrahydro-[2,3']biindolyliden-5'-yl}-acetamide]

From BindingDB's records for doi:10.1016/j.bmc.2009.07.051 (La Rochelle University, 2009)
